# Measured values published in patent US11970448B2, “Monomers capable of dimerizing in an aqueous solution, and methods of using same” (CORNELL UNIVERSITY, priority 2011, dated 2024).
# Where a name gives a salt, the structure may show the parent alone. Read-outs that look alike come from different tables or passages of the source.
# Target: T1, recominbant human tryptase, beta, from lung (Homo sapiens, UniProt P20231)
# T1 construct: purchased Promega or Enzo Life Sciences G5631 or BML-SE418
# Experiment: Inhibition of tryptase activity by monomers and multimers (Boc-Gln-Ala-Arg-AMC fluorescence)
# Type: biochemical
# Settings: monomers against tryptase
# Description: Stock solutions of recominbant human tryptase, beta, from lung (Promega: catalog number G5631, or Enzo Life Sciences: catalog number BML-SE418) were made at 30 μM, in solution with 5 μM heparin sulfate and 1 M NaCl. Monomer tryptase inhibitor stock solutions were made at 50 mM in DMSO. Test substance plates were made at 1.2× the final concentration in assay buffer (50 mM HEPES, 150 mM NaCl, 100 μM EDTA, pH 7.4, 0.02% Tween-20). A final concentration of 1 nM tryptase was used. When required, test substances were diluted in water immediately before use in 10-fold serial dilutions. After the indicated incubation time, the test subtance-tryptase solution at 1.2× concentration, was diluted into assay buffer containing a final concentration of 200 μM N-tert-butoxycarbonyl-Gln-Ala-Arg-AMC HBr [AMC=7-amino-4-methylcoumarin] (Boc-Gln-Ala-Arg-AMC; Enzo Life Sciences: catalog number BML-P237) to a final volume of 50 μl in black opaque round bottom 96 well plates (Corning, catalog number 3792). The release of fluorescent AMC was immediately measured every 30 seconds over 15-30 minutes at an excitation wavelength of 367 nm, monitoring emission at 468 nm on a Spectramax M5 (Molecular Devices) microplate reader. The Softmax Pro (Molecular Devices) and Graphpad prism software were used to determine Vmax, and concentration-response curve IC50s, respectively.
# [1] = Table 5, read-out: Monomer IC50 range
# [2] = read-out: IC50 range group of additional monomers (boronic acid, benzooxaborole, ligands)
# [3] = entry marked (1:10), read-out: IC50 range group of additional monomers marked (1:10)
# T1 sequence (P20231 31-275): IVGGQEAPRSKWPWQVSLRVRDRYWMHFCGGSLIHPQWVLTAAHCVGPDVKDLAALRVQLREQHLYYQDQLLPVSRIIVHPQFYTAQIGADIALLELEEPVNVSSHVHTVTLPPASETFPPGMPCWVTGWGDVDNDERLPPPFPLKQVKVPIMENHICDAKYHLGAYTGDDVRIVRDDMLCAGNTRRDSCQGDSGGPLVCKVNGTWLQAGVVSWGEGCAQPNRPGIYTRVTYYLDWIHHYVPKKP
SMILES,IC50 [1] [µM],IC50 [2] [µM],IC50 [3] [µM]
"NCc1cccc(C2CCN(C(=O)c3cccc(NC(=O)C(O)C4(O)CCC4)c3)CC2)c1 (stereo not shown) [T21 (Diol), N-(3-(4-(3-(aminomethyl)phenyl)piperidine-1-carbonyl)phenyl)-2-hydroxy-2-(1-hydroxycyclobutyl)acetamide]",0.0001 to 1,0.0001 to 1,–
"NCc1ccc(C(=O)NCc2ccc(OCCC(=O)N3CC(=O)[C@H](O)C3)cc2)cc1 [CF12, (R)-4-(aminomethyl)-N-(4-(3-(3-hydroxy-4-oxopyrrolidin-1-yl)-3-oxopropoxy)benzyl)benzamide hydrochloride]",1 to 10,–,–
NCc1cccc(C2CCN(C(=O)Cc3ccc(B(O)O)c(F)c3)CC2)c1 [T54BA],–,1 to 10,–
CN(C)c1ccc(B(O)O)cc1-c1cccc(C(=O)N2CCC3(CC2)COc2ccc(CN)cc23)c1 [T155SPIRO],–,1 to 10,–
"NCc1cccc(C2CCN(C(=O)c3ccc(O)c(CO)c3)CC2)c1 [T65, (4-(3-(aminomethyl)phenyl)piperidin-1-yl)(4-hydroxy-3-(hydroxymethyl)phenyl)methanone]",0.0001 to 1,0.0001 to 1,–
NCc1cccc(C2CCN(C(=O)/C=C/c3cccc(O)c3CO)CC2)c1 [T42],1 to 10,1 to 10,–
CSc1sc(C(=O)N2CCC3(CC2)COc2ccc(CN)cc23)cc1-c1cccc2c1C(C)OB2O (stereo not shown) [T117GEMMONO],–,0.0001 to 1,–
"NCc1cccc(C2CCN(C(=O)c3ccc(O)c(O)c3O)CC2)c1 [T68, (4-(3-(aminomethyl)phenyl)piperidin-1-yl)(2,3,4-trihydroxyphenyl)methanone]",1 to 10,1 to 10,–
"C[C@]1(O)CN(c2cccc(C(=O)N3CCC(c4cccc(CN)c4)CC3)c2)C(=O)[C@H]1O [CMI9321, 1-{3-[4-(3-aminomethyl-phenyl)-piperidine-1-carbonyl]-phenyl}-3,4-dihydroxy-4-methyl-pyrrolidin-2-one hydrochloride]",–,–,0.0001 to 1
"NCc1cccc(C2CCN(C(=O)c3cc4cc(O)ccc4[nH]3)CC2)c1 [T31A, (4-(3-(aminomethyl)phenyl)piperidin-1-yl)(5-hydroxy-1H-indol-2-yl)methanone]",0.0001 to 1,–,–
"NCc1cccc(C2CCN(C(=O)c3cccc(O)c3)CC2)c1 [T53B, (4-(3-(aminomethyl)phenyl)piperidin-1-yl)(3-hydroxyphenyl)methanone]",1 to 10,–,–
"NCc1cccc(C2CCN(C(=O)c3ccc(OCC(=O)N4C[C@@H](O)[C@@H](O)C4)cc3)CC2)c1 [T30, 2-(4-(4-(3-(aminomethyl)phenyl)piperidine-1-carbonyl)phenoxy)-1-((3S,4R)-3,4-dihydroxypyrrolidin-1-yl)ethanone]",1 to 10,1 to 10,–
"NCc1cccc(C2CCN(C(=O)c3cccc4sc(B(O)O)cc34)CC2)c1 [T37, 4-(4-(3-(aminomethyl)phenyl)piperidine-1-carbonyl)benzo[b]thiophen-2-ylboronic acid]",1 to 10,1 to 10,–
"NCc1cccc(C2CCN(C(=O)c3cccc(NC(=O)c4ccc(O)c(O)c4)c3)CC2)c1 [T71, N-(3-(4-(3-(aminomethyl)phenyl)piperidine-1-carbonyl)phenyl)-3,4-dihydroxybenzamide]",0.0001 to 1,0.0001 to 1,–
CC(C)(C)ONC(=O)c1cc(C(=O)N2CCC3(CC2)COc2ccc(CN)cc23)ccc1O [T920TBSPIRO],–,1 to 10,–
"CC(C)(O)c1ccc(/C=C/C(=O)N2CCC(c3cccc(CN)c3)CC2)cc1O [T41GEM, (E)-1-(4-(3-(aminomethyl)phenyl)piperidin-1-yl)-3-(3-hydroxy-4-(2-hydroxypropan-2-yl)phenyl)prop-2-en-1-one]",0.0001 to 1,0.0001 to 1,–
NCc1cccc(C2CCN(C(=O)c3cc4cc(O)c(O)cc4oc3=O)CC2)c1 [T100],10 to 65,10 to 65,–
"CC(O)(Cn1ccc2ccc(C(=O)N3CCC(c4cccc(CN)c4)CC3)cc21)C(=O)O (stereo not shown) [T82, 3-(6-(4-(3-(aminomethyl)phenyl)piperidine-1-carbonyl)-1H-indol-1-yl)-2-hydroxy-2-methylpropanoic acid]",0.0001 to 1,–,0.0001 to 1
